Tests used:
[1] = system: α-L-iduronidase W402X; assay: α-L-iduronidase-W402X assay (restored enzyme activity in cell lysates, 4-MU iduronide substrate); assay type: cell-based, human; details: 48 h treatment
Description: (§1) Activity of compounds of the present invention was examined using a functional readout for two clinically common stop codon (TAG) mutants (Q70X, W402X) of the lysosomal enzyme α-L-iduronidase. Lack of α-L-iduronidase expression in such stop codon patients leads to the lysosomal storage disorder Mucopolysaccharidosis I (MPSI) also called Hurler syndrome.
(§2) Reporter constructs analogous to constructs above were expressed. In the assay, 2500 cells/well were treated for 48 h with compound, washed with PBS and lysed (0.4 M Sodiumformate, 0.1% NaN3, 0.9% NaCl, 0.2% Triton, pH 3.5). Restored α-L-iduronidase activity in cell lysates was measured with the fluoresecent 4-MU iduronide substrate (4 Methylumbelliferyl α-L-iduronide) after 45 min incubation. Again, paromomycin was used as reference control (14 mM).

[2] = system: α-L-iduronidase Q70X; assay: α-L-iduronidase-Q70X assay (restored enzyme activity in cell lysates, 4-MU iduronide substrate); assay type: cell-based, human; details: 48 h treatment
Description: as §1, §2

[3] = system: human coagulation factor F9 containing the R29X (TAG) mutation; assay: F9-R29X assay (full length F9 expression in isogenic HekR4 cells, imaging / F9 ELISA); assay type: cell-based; details: nonsense mutation suppression
Description: Activity of compounds of the present invention was examined using reporter constructs of full length human coagulation factor F9 containing the R29X (TAG) mutation known from hemophilia B patients (“F9-R29X assay”). Full length F9 cDNA was stably expressed in the above isogenic HekR4 cell background. Stop codon readthrough and full length F9 expression was determined with a miniaturized confocal high throughput imaging assay. In paraformaldehyde fixed and permeabilized cells (10 uM compound; 24 h incubation) F9 expression was identified with a commercial F9 antibody raised against the F9 C-terminus. […] F9 staining intensity (Alexa-Fluor 488) and Draq5 nuclear staining served as readout for data calculation. Percent activity was measured in comparison to high (active control) and low controls (DMSO solvent).

[4] = system: CFTR-Y122X; assay: CFTR-Y122X assay (dual reporter isogenic Hek293 cell lines, Renilla luminescence readthrough); assay type: cell-based; details: Homo sapiens, HEK293, nonsense mutation suppression, 24 h incubation
Procedure, shortened: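 Stable isogenic HEK dual-reporter line (eGFP–CFTR Y122X TGA PTC–myc–Renilla); 2000 cells/well, 24 h, then compound (10 μM; tested up to 100 μM) 24 h at 37 °C. Renilla luminescence normalised to neutral (0%) and 14 mM paromomycin (100%); wildtype construct counterscreen.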

[5] = paromomycin 14 mM as reference control

CCc1nc2c(c(=O)c3ccccc3n2C)c(=O)n1C1CCCCCC1 [Example 2.31, 3-cycloheptyl-2-ethyl-10-methylpyrimido[4,5-b]quinoline-4,5(3H,10H)-dione]
W402X Amax [%] [1, 5]: 300%
AC50 ([1]; Homo sapiens): 2900 nM
Q70X Amax [%] [2, 5]: 438%
AC50 ([2]; Homo sapiens): 1700 nM
AC50 ([3]; Homo sapiens): 1900 nM
Amax [%] [3]: 167%
Emax ([4]; 100% = 14 mM paromomycin, tested up to 100 μM, read-out: Amax [%]): 67%
AC50 [4]: 2500 nM

From patent US9649314B2, “Pyrimido[4,5-b]quinoline-4,5(3H,10H)-diones” (NOVARTIS AG, priority 2012, dated 2017)
